Measurements taken from patent US20250122208A1, “CHEMOKINE RECEPTOR MODULATORS AND USES THEREOF” (RAPT THERAPEUTICS, INC., priority 2023, published 2025).

target: T1, CCR4 receptor (Homo sapiens, UniProt P51679); assay: CCR4 antagonist activity in Beta-Arrestin Cellular Assay (PathHunter, CCL22 challenge); format: cell-based; details: CHO-K1 cells expressing the CCR4 receptor; CCL22 at EC80 (15 nM), 90 minutes; 30 min pre-incubation; read-out: Potency (CCR4 antagonist IC50 in the β-arrestin assay)
T1 construct: beta-galactosidase enzyme-fragment tag; From own knowledge, PathHunter uses a ProLink/enzyme-donor fragment, usually at the receptor's C-terminus; expressed in transfected cells; host or cells: CHO-K1
T1 sequence (P51679 1-360): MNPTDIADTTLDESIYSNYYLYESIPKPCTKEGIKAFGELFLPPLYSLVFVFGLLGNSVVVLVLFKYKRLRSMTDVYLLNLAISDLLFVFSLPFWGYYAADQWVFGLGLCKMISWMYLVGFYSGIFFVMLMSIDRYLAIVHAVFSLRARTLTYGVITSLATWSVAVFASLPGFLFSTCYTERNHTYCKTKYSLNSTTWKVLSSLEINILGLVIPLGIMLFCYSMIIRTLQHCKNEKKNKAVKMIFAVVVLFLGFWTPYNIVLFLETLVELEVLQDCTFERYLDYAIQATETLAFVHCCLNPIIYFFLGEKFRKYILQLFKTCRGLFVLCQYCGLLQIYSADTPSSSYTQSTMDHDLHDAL
Protocol: Example 39. Determination of CCR4 antagonist activity in Beta-Arrestin Cellular Assay
CCR4 Antagonistic Activity was assessed in Beta-Arrestin Cellular Assay. Compounds were assessed in CHO-K1 cells expressing the CCR4 receptor modified to enable β-glactosidase detection of β-arrestin agonist activity stimulated by CCL22 in a chemiluminescence assay. Cells were seeded in a total volume of 20 μL into white walled, 384-well microplates and incubated at 37° C. prior to testing. Cells were pre-incubated with test compound for 30 min at 37° C. followed by agonist challenge with CCL22 at the EC80 concentration (15 nM) for 90 minutes. Assay signal was generated through a single addition of 12.5 or 15 μL ([…]) of PathHunter Detection reagent cocktail, followed by a one-hour incubation at room temperature. Microplates were read following signal generation with a PerkinElmer Envision™ instrument for chemiluminescent signal detection. Antagonist activity was analyzed using CBIS data analysis suite (ChemInnovation, CA). Antagonist activity was characterized as percentage inhibition calculated using the following formula:
An IC50 of >500 nM is designated as Potency C, an IC50 of between 500 nM and 100 nM is designated as Potency B and an IC50 of <100 nM is designated as Potency A.

Question: `CC(CN1CCC[C@H](C2CCN(c3cc(N[C@H](C)c4ccc(Cl)cc4Cl)n4ncnc4n3)CC2)C1)C(=O)O` (mixture of isomers) [Example 15, 3-((R)-1′-(7-(((R)-1-(2,4-dichlorophenyl)ethyl)amino)-[1,2,4]triazolo[1,5-a]pyrimidin-5-yl)-[3,4′-bipiperidin]-1-yl)-2-methylpropanoic acid] was tested. Which IC50 did it give?
Answer: The IC50 was < 100 nM.

Question: With `C[C@@H](Nc1cc(N2CCC([C@H]3CCCN(C4CC(S(C)(=O)=O)C4)C3)CC2)nc2ncnn12)c1ccc(Cl)cc1Cl` (mixture of isomers) [Example 21, N-((R)-1-(2,4-dichlorophenyl)ethyl)-5-((R)-1-(3-(methylsulfonyl)cyclobutyl)-[3,4′-bipiperidin]-1′-yl)-[1,2,4]triazolo[1,5-a]pyrimidin-7-amine] as the compound, how does the IC50 read?
Answer: The IC50 was < 100 nM.

Question: For `C[C@@H](Nc1cc(N2CCC([C@H]3CCCN(Cc4nn[nH]n4)C3)CC2)nc2ncnn12)c1ccc(Cl)cc1Cl` [Example 2, 5-((R)-1-((2H-tetrazol-5-yl)methyl)-[3,4′-bipiperidin]-1′-yl)-N-((R)-1-(2,4-dichlorophenyl)ethyl)-[1,2,4]triazolo[1,5-a]pyrimidin-7-amine], which IC50 is on record?
Answer: Its IC50 is < 100 nM.

Question: Which IC50 does the source give for `C[C@@H](Nc1cc(N2CCC([C@H]3CCCN(CCS(C)(=O)=O)C3)CC2)nc2ncnn12)c1ccc(Cl)cc1Cl` [Example 12, N-((R)-1-(2,4-dichlorophenyl)ethyl)-5-((R)-1-(2-(methylsulfonyl)ethyl)-[3,4′-bipiperidin]-1′-yl)-[1,2,4]triazolo[1,5-a]pyrimidin-7-amine] here?
Answer: Its IC50 is < 100 nM.

Question: How did the IC50 turn out when `Cc1cc(Cl)ccc1[C@@H](C)Nc1cc(N2CCC([C@H]3CCCN([C@H]4C[C@](C)(C(=O)O)C4)C3)CC2)nc2ncnn12` [Example 33, (1R,3r)-3-((R)-1′-(7-(((R)-1-(4-chloro-2-methylphenyl)ethyl)amino)-[1,2,4]triazolo[1,5-a]pyrimidin-5-yl)-[3,4′-bipiperidin]-1-yl)-1-methylcyclobutane-1-carboxylic acid] was run?
Answer: The IC50 was 100 to 500 nM.

Question: With `C[C@@H](Nc1cc(N2CCC([C@H]3CCCN([C@H]4C[C@](C)(C(=O)O)C4)C3)CC2)nc2nccn12)c1ccc(Cl)cc1Cl` [Example 36, (1R,3r)-3-((R)-1′-(5-(((R)-1-(2,4-dichlorophenyl)ethyl)amino)imidazo[1,2-a]pyrimidin-7-yl)-[3,4′-bipiperidin]-1-yl)-1-methylcyclobutane-1-carboxylic acid] as the compound, how does the IC50 read?
Answer: The IC50 was < 100 nM.

Question: With `C[C@@H](Nc1cc(N2CCC([C@H]3CCCN([C@H]4C[C@](C)(C(=O)O)C4)C3)CC2)nc2ccnn12)c1ccc(Cl)cc1Cl` [Example 24, (1R,3r)-3-((R)-1′-(7-(((R)-1-(2,4-dichlorophenyl)ethyl)amino)pyrazolo[1,5-a]pyrimidin-5-yl)-[3,4′-bipiperidin]-1-yl)-1-methylcyclobutane-1-carboxylic acid] as the compound, how does the IC50 read?
Answer: Its IC50 is < 100 nM.

Question: For `CC(=O)NCCN1CCC[C@H](C2CCN(c3cc(N[C@H](C)c4ccc(Cl)cc4Cl)n4ncnc4n3)CC2)C1` [Example 13, N-(2-((R)-1′-(7-(((R)-1-(2,4-dichlorophenyl)ethyl)amino)-[1,2,4]triazolo[1,5-a]pyrimidin-5-yl)-[3,4′-bipiperidin]-1-yl)ethyl)acetamide], which IC50 is on record?
Answer: The IC50 was < 100 nM.

Question: Which IC50 does the source give for `COCCN1CCC[C@H](C2CCN(c3cc(N[C@H](C)c4ccc(Cl)cc4Cl)n4ncnc4n3)CC2)C1` [Example 11, N-((R)-1-(2,4-dichlorophenyl)ethyl)-5-((R)-1-(2-methoxyethyl)-[3,4′-bipiperidin]-1′-yl)-[1,2,4]triazolo[1,5-a]pyrimidin-7-amine] here?
Answer: The IC50 was < 100 nM.

Question: `C[C@@H](Nc1cc(N2CCC([C@H]3CCCN(CC(F)(F)F)C3)CC2)nc2ncnn12)c1ccc(Cl)cc1Cl` [Example 7, N-((R)-1-(2,4-dichlorophenyl)ethyl)-5-((R)-1-(2,2,2-trifluoroethyl)-[3,4′-bipiperidin]-1′-yl)-[1,2,4]triazolo[1,5-a]pyrimidin-7-amine] was tested. Which IC50 did it give?
Answer: The IC50 was > 500 nM.

Question: Which IC50 does the source give for `C[C@@H](Nc1cc(N2CCC([C@H]3CCCN(CCS(N)(=O)=O)C3)CC2)nc2ncnn12)c1ccc(Cl)cc1Cl` [Example 19, 2-((R)-1′-(7-(((R)-1-(2,4-dichlorophenyl)ethyl)amino)-[1,2,4]triazolo[1,5-a]pyrimidin-5-yl)-[3,4′-bipiperidin]-1-yl)ethane-1-sulfonamide] here?
Answer: The IC50 was < 100 nM.

Question: With `Cc1ccc([C@@H](C)Nc2cc(N3CCC([C@H]4CCCN([C@H]5C[C@](C)(C(=O)O)C5)C4)CC3)nc3ccnn23)c(Cl)c1` [Example 31, (1R,3r)-3-((R)-1′-(7-(((R)-1-(2-chloro-4-methylphenyl)ethyl)amino)pyrazolo[1,5-a]pyrimidin-5-yl)-[3,4′-bipiperidin]-1-yl)-1-methylcyclobutane-1-carboxylic acid] as the compound, how does the IC50 read?
Answer: The IC50 was < 100 nM.

Question: How did the IC50 turn out when `C[C@@H](Nc1cc(N2CCC([C@H]3CCCN([C@H]4C[C@](C)(C(=O)O)C4)C3)CC2)nc2nccn12)c1ccc(Cl)cc1F` [Example 27, (1R,3r)-3-((R)-1′-(5-(((R)-1-(4-chloro-2-fluorophenyl)ethyl)amino)imidazo[1,2-a]pyrimidin-7-yl)-[3,4′-bipiperidin]-1-yl)-1-methylcyclobutane-1-carboxylic acid] was run?
Answer: Its IC50 is < 100 nM.

Question: For `C[C@@H](Nc1cc(N2CCC(C3CCCN(CCO)C3)C2)nc2ncnn12)c1ccc(Cl)cc1Cl` (single isomer, unassigned) [Example 23a], which IC50 is on record?
Answer: Its IC50 is < 100 nM.

Question: `CNC(=O)CCN1CCC[C@H](C2CCN(c3cc(N[C@H](C)c4ccc(Cl)cc4Cl)n4ncnc4n3)CC2)C1` [Example 17, 3-((R)-1′-(7-(((R)-1-(2,4-dichlorophenyl)ethyl)amino)-[1,2,4]triazolo[1,5-a]pyrimidin-5-yl)-[3,4′-bipiperidin]-1-yl)-N-methylpropanamide] was tested. Which IC50 did it give?
Answer: Its IC50 is < 100 nM.

Question: With `Cc1cc(F)ccc1[C@@H](C)Nc1cc(N2CCC([C@H]3CCCN([C@H]4C[C@](C)(C(=O)O)C4)C3)CC2)nc2ncnn12` [Example 28, (1R,3r)-3-((R)-1′-(7-(((R)-1-(4-fluoro-2-methylphenyl)ethyl)amino)-[1,2,4]triazolo[1,5-a]pyrimidin-5-yl)-[3,4′-bipiperidin]-1-yl)-1-methylcyclobutane-1-carboxylic acid] as the compound, how does the IC50 read?
Answer: Its IC50 is 100 to 500 nM.

Question: `CC(CCN1CCC[C@H](C2CCN(c3cc(N[C@H](C)c4ccc(Cl)cc4Cl)n4ncnc4n3)CC2)C1)C(=O)O` (mixture of isomers) [Example 16, 4-((R)-1′-(7-(((R)-1-(2,4-dichlorophenyl)ethyl)amino)-[1,2,4]triazolo[1,5-a]pyrimidin-5-yl)-[3,4′-bipiperidin]-1-yl)-2-methylbutanoic acid] was tested. Which IC50 did it give?
Answer: Its IC50 is < 100 nM.

Question: How did the IC50 turn out when `CNS(=O)(=O)CCCN1CCC[C@H](C2CCN(c3cc(N[C@H](C)c4ccc(Cl)cc4Cl)n4ncnc4n3)CC2)C1` [Example 20, 3-((R)-1′-(7-(((R)-1-(2,4-dichlorophenyl)ethyl)amino)-[1,2,4]triazolo[1,5-a]pyrimidin-5-yl)-[3,4′-bipiperidin]-1-yl)-N-methylpropane-1-sulfonamide] was run?
Answer: The IC50 was < 100 nM.

Question: For `Cc1cc(F)ccc1[C@@H](C)Nc1cc(N2CCC([C@H]3CCCN([C@H]4C[C@](C)(C(=O)O)C4)C3)CC2)nc2ccnn12` [Example 29, (1R,3r)-3-((R)-1′-(7-(((R)-1-(4-fluoro-2-methylphenyl)ethyl)amino)pyrazolo[1,5-a]pyrimidin-5-yl)-[3,4′-bipiperidin]-1-yl)-1-methylcyclobutane-1-carboxylic acid], which IC50 is on record?
Answer: Its IC50 is < 100 nM.

Question: For `C[C@@H](Nc1cc(N2CCC([C@H]3CCCN([C@H]4C[C@](C)(C(=O)O)C4)C3)CC2)nc2ncnn12)c1ccc(F)cc1Cl` [Example 26, (1R,3r)-3-((R)-1′-(7-(((R)-1-(2-chloro-4-fluorophenyl)ethyl)amino)-[1,2,4]triazolo[1,5-a]pyrimidin-5-yl)-[3,4′-bipiperidin]-1-yl)-1-methylcyclobutane-1-carboxylic acid], which IC50 is on record?
Answer: The IC50 was < 100 nM.
